Assay results as given in article PMC7377239, “Cardiovascular Effects of Polychlorinated Biphenyls and Their Major Metabolites” (Environmental Health Perspectives, 2020).
Structures can show the parent of a compound that is named as a salt. Where two headings read alike, the source gives them in different places.

Tested on: iCell cardiomyocytes (human iPSC-derived cardiomyocytes)
Assay: High-content imaging of cytotoxicity and mitochondrial integrity in iPSC-CMs
Assay type: cell-based
Conditions: Homo sapiens; for viability at 0.01 µM / activity at 0.01 µM / viability at 0.1 µM / activity at 0.1 µM / viability at 1 µM / activity at 1 µM / viability at 10 µM / activity at 10 µM / viability at 100 µM / activity at 100 µM: 0.00 µM = 100.00; for viability at 0.1 µM / activity at 0.1 µM: 0.10 µM
Protocol: Details on cardiomyocyte cell culture are described in detail elsewhere ([Grimm et al. 2015b]; [Sirenko et al. 2013a]). Briefly, tissue-culture treated 384 well plates were gelatinized with 25μL per well of 0.1% (w/v) gelatin in water for 2 h at 37°C and 5% CO2 . Individual vials of cells were thawed for 4 min in a water bath maintained at 37°C. Thawed cells were resuspended in 10ml plating medium containing 1:500 (vol/vol) penicillin/streptomycin solution at room temperature (RT). Live cell counts for each cell suspension were determined by trypan blue staining and cells were further diluted to provide final cell densities of 2×10^5 viable cells/ml. Thus, 5,000 cells suspended in 25μL media were transferred per well after the gelatin solution had been discarded. Cell culture plates were rested for 30 min at RT before they were incubated for 48 h at 37°C and 5% CO2 . Then, a media exchange with 30μL of fresh maintenance medium containing 1:500 (vol/vol) penicillin/streptomycin solution was performed, and cell media were subsequently changed every 48 h for 12 d. On the experiment day, the medium was completely exchanged with either 25μL (for Ca^2+ flux assay) or 40μL (for imaging) of fresh medium.
Cytotoxicity and effects on mitochondrial integrity of various PCBs and PCB metabolites in induced pluripotent stem cell-CMs (iPSC-CMs) were assessed using high-content cellular imaging in ImageXpress® Micro Confocal (Molecular Devices) as detailed in ([Grimm et al. 2015b]). Cells in 40μL maintenance media were treated with 10μL of 5× chemical solutions to provide test chemicals at final assay concentrations ranging from 0.01 to 100μM . […] Next, sample wells were treated with 50μL equilibrated 2× concentrated staining solution (maintenance medium containing Hoechst 33342, 4μg/mL and MitoTracker™ Orange, 0.4μM ). Microplates were then incubated for 15 min at 37°C and 5% CO2 before cells were washed twice with 30μL maintenance medium. All media were aspirated and discarded, and cells were fixed with […] of a 3.7% formaldehyde solution for 15 min at 37°C and 5% […] . Fixed cells were washed 3× with 25μL PBS before image acquisition using the DAPI (Hoechst 33342) and Cy3 (MitoTracker™ Orange) filters at 10× magnification on the ImageXpress® Micro Confocal high-content confocal microscope (Molecular Devices). The multiwavelength cell scoring applications module in MetaXpress® was used to analyze acquired images.
Phenotypic responses were quantitatively assessed using concentration–response modeling as detailed elsewhere ([Sirenko et al. 2017]). Briefly, phenotypic readouts were normalized to vehicle controls and fit to a four-parameter logistic model in R studio software (version 3.1.1; R Development Core Team). Following EPA guidance on dose–response modeling, a cutoff of one standard deviation across means of vehicle control (i.e., 0.5% vol/vol DMSO in cell culture media) wells was applied to determine the point-of-departure (POD) values ([U.S. EPA 2012]). In the absence of a concentration–response, the highest tested concentration (i.e., 100μM ) was assigned as “no observable adverse effect level.” The concentration–response assessment R script, as well as templates for vehicle and concentration–response data, are available as a supplement to Sirenko et al. ([2017]). The ability of physicochemical properties to predict differences in PODs were evaluated by multiregression and mixed-effects modeling using R.

[1] = Cardiomyocyte, 1.5 h, read-out: cm.cam.90min
[2] = Cardiomyocyte, 1.5 h, read-out: cm.mii.90min
[3] = Cardiomyocyte, 1.5 h, read-out: cm.mito.90min
[4] = Cardiomyocyte, 1.5 h, read-out: cm.tc.90min
[5] = Cardiomyocyte, 24 h, read-out: cm.cam.24hrs
[6] = Cardiomyocyte, 24 h, read-out: cm.mii.24hrs
[7] = Cardiomyocyte, 24 h, read-out: cm.mito.24hrs
[8] = Cardiomyocyte, 24 h, read-out: cm.tc.24hrs
[9] = Cardiomyocyte, 1.5 h, cardiomyocytes (cm), cam, 90 min, read-out: POD cm.cam.90min
[10] = Cardiomyocyte, 1.5 h, cardiomyocytes (cm), mii, 90 min, read-out: POD cm.mii.90min
[11] = Cardiomyocyte, 1.5 h, cardiomyocytes (cm), mito, 90 min, read-out: POD cm.mito.90min
[12] = Cardiomyocyte, 1.5 h, cardiomyocytes (cm), tc, 90 min, read-out: POD cm.tc.90min
[13] = Cardiomyocyte, 24 h, cardiomyocytes (cm), cam, 24 hrs, read-out: POD cm.cam.24hrs
[14] = Cardiomyocyte, 24 h, cardiomyocytes (cm), mii, 24 hrs, read-out: POD cm.mii.24hrs
[15] = Cardiomyocyte, 24 h, cardiomyocytes (cm), mito, 24 hrs, read-out: POD cm.mito.24hrs
[16] = Cardiomyocyte, 24 h, cardiomyocytes (cm), tc, 24 hrs, read-out: POD cm.tc.24hrs

O=S(=O)(O)Oc1cccc(-c2ccc(Cl)cc2)c1 [3'-yl PCB 3 sulfate]
viability at 0.01 µM [1]: 99.5%
activity at 0.01 µM [2]: 98.4%
activity at 0.01 µM [3]: 99.8%
viability at 0.01 µM [4]: 99.9%
viability at 0.1 µM [1]: 98.2%
activity at 0.1 µM [2]: 97.1%
activity at 0.1 µM [3]: 98.3%
viability at 0.1 µM [4]: 98.4%
viability at 1 µM [1]: 102%
activity at 1 µM [2]: 99.8%
activity at 1 µM [3]: 102%
viability at 1 µM [4]: 102%
viability at 10 µM [1]: 95.4%
activity at 10 µM [2]: 104%
activity at 10 µM [3]: 95.4%
viability at 10 µM [4]: 95.3%
viability at 100 µM [1]: 99%
activity at 100 µM [2]: 91.3%
activity at 100 µM [3]: 99.3%
viability at 100 µM [4]: 99.3%
viability at 0.01 µM [5]: 97.1%
activity at 0.01 µM [6]: 93.8%
activity at 0.01 µM [7]: 95.4%
viability at 0.01 µM [8]: 98%
viability at 0.1 µM [5]: 105%
activity at 0.1 µM [6]: 89.9%
activity at 0.1 µM [7]: 105%
viability at 0.1 µM [8]: 105%
viability at 1 µM [5]: 101%
activity at 1 µM [6]: 100%
activity at 1 µM [7]: 99.9%
viability at 1 µM [8]: 102%
viability at 10 µM [5]: 103%
activity at 10 µM [6]: 79.2%
activity at 10 µM [7]: 104%
viability at 10 µM [8]: 103%
viability at 100 µM [5]: 97%
activity at 100 µM [6]: 88.7%
activity at 100 µM [7]: 97.8%
viability at 100 µM [8]: 97.2%
minimal effective concentration (iPSC-CM, 1.5 h, iPSC-CM, read-out: cm.cam.90min POD): 100 µM
minimal effective concentration (iPSC-CM, 1.5 h, iPSC-CM, read-out: cm.mii.90min POD): 89.9 µM
minimal effective concentration (iPSC-CM, 1.5 h, iPSC-CM, read-out: cm.mito.90min POD): 100 µM
minimal effective concentration (iPSC-CM, 1.5 h, iPSC-CM, read-out: cm.tc.90min POD): 100 µM
minimal effective concentration (iPSC-CM, 24 h, iPSC-CM, read-out: cm.cam.24hrs POD): 100 µM
minimal effective concentration (iPSC-CM, 24 h, iPSC-CM, read-out: cm.mii.24hrs POD): 100 µM
minimal effective concentration (iPSC-CM, 24 h, iPSC-CM, read-out: cm.mito.24hrs POD): 100 µM
minimal effective concentration (iPSC-CM, 24 h, iPSC-CM, read-out: cm.tc.24hrs POD): 100 µM

Oc1ccc(-c2ccc(Cl)cc2)cc1 [4'-OH-PCB 3]
minimal effective concentration [9]: 12.4 µM
minimal effective concentration [10]: 16 µM
minimal effective concentration [11]: 11.5 µM
minimal effective concentration [12]: 11.3 µM
minimal effective concentration [13]: 32.3 µM
minimal effective concentration [14]: 15.4 µM
minimal effective concentration [15]: 37.2 µM
minimal effective concentration [16]: 38.4 µM

O=S(=O)(O)Oc1cc(Cl)c(-c2cc(Cl)ccc2Cl)cc1Cl [4-PCB 52 sulfate]
minimal effective concentration [9]: 10.8 µM
minimal effective concentration [10]: 41.2 µM
minimal effective concentration [11]: 10.6 µM
minimal effective concentration [12]: 10.8 µM
minimal effective concentration [13]: 8.2 µM
minimal effective concentration [14]: 44.6 µM
minimal effective concentration [15]: 8.28 µM
minimal effective concentration [16]: 8.44 µM

Oc1ccccc1-c1ccc(Cl)cc1 [2'-OH-PCB 3]
minimal effective concentration [9]: 32.8 µM
minimal effective concentration [10]: 9.15 µM
minimal effective concentration [11]: 41.4 µM
minimal effective concentration [12]: 34.5 µM
minimal effective concentration [13]: 40.4 µM
minimal effective concentration [14]: 6.56 µM
minimal effective concentration [15]: 29.8 µM
minimal effective concentration [16]: 35.9 µM

O=S(=O)(O)Oc1ccc(-c2ccc(Cl)cc2)cc1 [4'-PCB 3 sulfate]
minimal effective concentration [9]: 100 µM
minimal effective concentration [10]: 100 µM
minimal effective concentration [11]: 100 µM
minimal effective concentration [12]: 100 µM
minimal effective concentration [13]: 100 µM
minimal effective concentration [14]: 53.5 µM
minimal effective concentration [15]: 100 µM
minimal effective concentration [16]: 100 µM
